Experimental data: patent US6630469B2, “5-HT7 receptor antagonists” (Bristol-Myers Squibb Company, priority 2000, dated 2003)

Biological target: T1, human 5-HT7 receptor (Homo sapiens, UniProt P34969)
T1 construct: expressed in transfected cells; host or cells: CHO cells
Assay: 5-HT7 Receptor Binding Assay
Settings: membranes of CHO cells expressing human 5-HT7 receptor; 1 nM 3H-5-carboxamidotryptamine; 25° C., 60 minutes
Description: 5-HT7 Receptor Binding Assay
Membranes are prepared for binding using the human 5-HT7 receptor expressed in CHO cells. Cells are collected and ruptured using a dounce homogenizer. The cells are spun at 18000× g for 10 minutes and the pellet is resuspended in assay buffer, frozen in liquid nitrogen and kept at −80° C. until the day of the assay.
A total of 30 ug protein is used per well. The assay is carried out in 96-deep-well plates. The assay buffer is 50 mM HEPES. The membrane preparation is incubated at 25° C. for 60 minutes with 0.1 nM to 1000 nM test compound and 1 nM ^3H-5-carboxamidotryptamine. 10 uM serotonin is used as blocking agent to determine non-specific binding. The reaction is terminated by the addition of 1 ml of ice cold 5OmM HEPES buffer and rapid filtration through a Brandel Cell Harvester using Whatman GF/B filters. The filter pads are counted in an LKB Trilux liquid scintillation counter. IC50 values are determined using non-linear regression by Exel-fit.

T1 sequence (P34969 whole entry): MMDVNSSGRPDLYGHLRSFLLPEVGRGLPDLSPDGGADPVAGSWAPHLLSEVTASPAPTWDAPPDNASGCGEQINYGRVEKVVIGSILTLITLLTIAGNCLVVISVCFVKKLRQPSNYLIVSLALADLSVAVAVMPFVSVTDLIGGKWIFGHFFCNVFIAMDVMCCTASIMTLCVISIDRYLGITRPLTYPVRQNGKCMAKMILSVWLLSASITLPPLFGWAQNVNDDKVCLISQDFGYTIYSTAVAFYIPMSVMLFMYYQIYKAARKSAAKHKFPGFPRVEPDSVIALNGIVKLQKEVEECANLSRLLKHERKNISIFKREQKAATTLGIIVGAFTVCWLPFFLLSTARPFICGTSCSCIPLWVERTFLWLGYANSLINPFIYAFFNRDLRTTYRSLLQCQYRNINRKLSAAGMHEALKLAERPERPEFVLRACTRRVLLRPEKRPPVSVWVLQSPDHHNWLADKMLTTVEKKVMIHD

Row | SMILES | IC50 [nM]
1 | CC[C@H](Nc1nc(N)nc(NCCOc2ccccc2)n1)c1ccccc1 [Compound 40, N^2-[2-(Phenoxy)ethyl]-N^4-[(1S)-1-phenylpropyl]-1,3,5-triazine-2,4,6-triamine] | 51 to 100
2 | C[C@H](Nc1nc(N)nc(NCCOc2ccccc2)n1)c1ccccc1 [Compound 41, N^2-[2-(Phenoxy)ethyl]-N^4-[(1S)-1-phenylethyl]-1,3,5-triazine-2,4,6-triamine] | 51 to 100
3 | C[C@H](Nc1nc(N)nc(NCCOc2ccccc2)n1)c1cccc2ccccc12 [Compound 42, N^2-[(1S)-1-(1-Napthyl)ethyl]-N^4-[2-(phenoxy)ethyl]-1,3,5-triazine-2,4,6-triamine] | 51 to 100
4 | C[C@H](Nc1nc(N)nc(NCCOc2ccc(F)cc2)n1)c1ccc([N+](=O)[O-])cc1 [Compound 45, N^2-[2-(4-Fluorophenoxy)ethyl]-N^4-[(1S)-1-(4-nitrophenyl)ethyl]-1,3,5-triazine-2,4,6-triamine] | 51 to 100
5 | C[C@H](Nc1nc(N)nc(NCCOc2ccc(F)c(F)c2)n1)c1ccc([N+](=O)[O-])cc1 [Compound 47, N^2-[2-(3,4-Difluorophenoxy)ethyl]-N^4-[(1S)-1-(4-nitrophenyl)ethyl]-1,3,5-triazine-2,4,6-triamine] | 51 to 100
6 | C[C@H](Nc1nc(N)nc(NCCc2ccccc2F)n1)c1ccccc1 [Compound 48, N^2-[2-(2-Fluorophenyl)ethyl]-N^4-[(1S)-1-phenylethyl]-1,3,5-triazine-2,4,6-triamine] | 51 to 100
7 | CC[C@H](Nc1nc(N)nc(NCCc2ccc(C)cc2)n1)c1ccccc1 [Compound 49, N^2-[2-(4-Methylphenyl)ethyl]-N^4-[(1S)-1-phenylpropyl]-1,3,5-triazine-2,4,6-triamine] | 51 to 100
8 | C[C@H](Nc1nc(N)nc(NCCc2ccc(Cl)cc2)n1)c1ccccc1 [Compound 50, N^2-[2-(4-Chlorophenyl)ethyl]-N^4-[(1S)-1-phenylethyl]-1,3,5-triazine-2,4,6-triamine] | 51 to 100
9 | CC[C@H](Nc1nc(N)nc(NCCc2ccccc2F)n1)c1ccccc1 [Compound 51, N^2-[2-(2-Fluorophenyl)ethyl]-N^4-[(1S)-1-phenylpropyl]-1,3,5-triazine-2,4,6-triamine] | 51 to 100
10 | CC[C@H](Nc1nc(N)nc(NCCc2cccc(OC)c2)n1)c1ccccc1 [Compound 52, N^2-[2-(3-Methoxyphenyl)ethyl]-N^4-[(1S)-1-phenylpropyl]-1,3,5-triazine-2,4,6-triamine] | 51 to 100
11 | C[C@H](Nc1nc(N)nc(NCCc2cccc(C(F)(F)F)c2)n1)c1ccccc1 [Compound 53, N^2-[(1S)-1-Phenylethyl]-N^4-{2-[3-(trifluoromethyl)phenyl]ethyl}-1,3,5-triazine-2,4,6-triamine] | 51 to 100
12 | COc1cccc(CCNc2nc(N)nc(N[C@@H](C)c3ccccc3)n2)c1 [Compound 54, N^2-[2-(3-Methoxyphenyl)ethyl]-N^4-[(1S)-1-phenylethyl]-1,3,5-triazine-2,4,6-triamine] | 51 to 100
13 | C[C@H](Nc1nc(N)nc(NCCc2cccc(C#N)c2)n1)c1ccccc1 [Compound 55, N^2-[2-(3-Cyanophenyl)ethyl]-N^4-[(1S)-1-phenylethyl]-1,3,5-triazine-2,4,6-triamine] | 51 to 100
14 | C[C@H](Nc1nc(N)nc(NCCc2ccccc2)n1)c1cccc2ccccc12 [Compound 56, N^2-[(1S)-1-(1-Napthalenyl)ethyl]-N^4-(2-phenylethyl)-1,3,5-triazine-2,4,6-triamine] | 51 to 100
15 | C[C@H](Nc1nc(N)nc(NCCC2=CCCCC2)n1)c1ccccc1 [Compound 57, N^2-[2-(1-Cyclohexenyl)ethyl]-N^4-[(1S)-1-phenylethyl]-1,3,5-triazine-2,4,6-triamine] | 51 to 100
16 | C[C@H](Nc1nc(N)nc(NCCc2cccc(Cl)c2)n1)c1ccc([N+](=O)[O-])cc1 [Compound 58, N^2-[2-(3-Chlorophenyl)ethyl]-N^4-[(1S)-1-(4-nitrophenyl)ethyl]-1,3,5-triazine-2,4,6-triamine] | 51 to 100
17 | C[C@H](Nc1nc(N)nc(NCCc2ccc(Cl)cc2)n1)c1ccc([N+](=O)[O-])cc1 [Compound 59, N^2-[2-(4-Chlorophenyl)ethyl]-N^4-[(1S)-1-(4-nitrophenyl)ethyl]-1,3,5-triazine-2,4,6-triamine] | 51 to 100
18 | C[C@H](Nc1nc(N)nc(NCCc2ccccc2)n1)c1ccccc1 [Compound 60, N^2-[(1S)-1-Phenylethyl]-N^4-(2-phenylethyl)-1,3,5-triazine-2,4,6-triamine] | ≤ 50
19 | C[C@H](Nc1nc(N)nc(NCCc2cccc(F)c2)n1)c1ccccc1 [Compound 61, N^2-[2-(3-Fluorophenyl)ethyl]-N^4-[(1S)-1-phenylethyl]-1,3,5-triazine-2,4,6-triamine] | ≤ 50

Row | SMILES | IC50 [nM]
20 | C[C@H](Nc1nc(N)nc(NCCc2cccc(Cl)c2)n1)c1ccccc1 [Compound 62, N^2-[2-(3-Chlorophenyl)ethyl]-N^4-[(1S)-1-phenylethyl]-1,3,5-triazine-2,4,6-triamine] | ≤ 50
21 | CC[C@H](Nc1nc(N)nc(NCCc2cccc(F)c2)n1)c1ccccc1 [Compound 63, N^2-[2-(3-Fluorophenyl)ethyl]-N^4-[(1S)-1-phenylpropyl]-1,3,5-triazine-2,4,6-triamine] | ≤ 50
22 | C[C@H](Nc1nc(N)nc(NCCc2ccc(F)cc2)n1)c1ccccc1 [Compound 64, N^2-[2-(4-Fluorophenyl)ethyl]-N^4-[(1S)-1-phenylethyl]-1,3,5-triazine-2,4,6-triamine] | ≤ 50
23 | CC[C@H](Nc1nc(N)nc(NCCc2ccccc2)n1)c1ccccc1 [Compound 65, N^2-2-Phenylethyl-N^4-[(1S)-1-phenylpropyl]-1,3,5-triazine-2,4,6-triamine] | ≤ 50
24 | C[C@H](Nc1nc(N)nc(NCCc2cccc(Br)c2)n1)c1ccccc1 [Compound 66, N^2-[2-(3-Bromophenyl)ethyl]-N^4-[(1S)-1-phenylethyl]-1,3,5-triazine-2,4,6-triamine] | ≤ 50
25 | CC[C@H](Nc1nc(N)nc(NCCc2ccc(F)cc2)n1)c1ccccc1 [Compound 67, N^2-[2-(4-Fluorophenyl)ethyl]-N^4-[(1S)-1-phenylpropyl]-1,3,5-triazine-2,4,6-triamine] | ≤ 50
26 | C[C@H](Nc1nc(N)nc(NCCc2cccc(F)c2)n1)c1ccc(Br)cc1 [Compound 68, N^2-[(1S)-1-(4-Bromophenyl)ethyl]-N^4-[2-(3-fluorophenyl)ethyl]-1,3,5-triazine-2,4,6-triamine] | ≤ 50
27 | CC[C@H](Nc1nc(N)nc(NCCc2cccc(Cl)c2)n1)c1ccccc1 [Compound 69, N^2-[2-(3-Chlorophenyl)ethyl]-N^4-[(1S)-1-phenylpropyl]-1,3,5-triazine-2,4,6-triamine] | ≤ 50
28 | C[C@H](Nc1nc(N)nc(NCCc2ccc(F)cc2)n1)c1ccc(Br)cc1 [Compound 70, N^2-[(1S)-1-(4-Bromophenyl)ethyl]-N^4-[2-(4-fluorophenyl)ethyl]-1,3,5-triazine-2,4,6-triamine] | ≤ 50
29 | C[C@H](Nc1nc(N)nc(NCCc2ccc(Cl)c(Cl)c2)n1)c1ccccc1 [Compound 71, N^2-[2-(3,4-Dichlorophenyl)ethyl]-N^4-[(1S)-1-phenylethyl]-1,3,5-triazine-2,4,6-triamine] | ≤ 50
30 | Cc1ccc(CCNc2nc(N)nc(N[C@@H](C)c3ccccc3)n2)cc1 [Compound 72, N^2-[2-(4-Methylphenyl)ethyl]-N^4-[(1S)-1-phenylethyl]-1,3,5-triazine-2,4,6-triamine] | ≤ 50
31 | C[C@H](Nc1nc(N)nc(NCCc2cccc(O)c2)n1)c1ccccc1 [Compound 73, N^2-[2-(3-Hydroxyphenyl)ethyl]-N^4-[(1S)-1-phenylethyl]-1,3,5-triazine-2,4,6-triamine] | ≤ 50
32 | C[C@H](Nc1nc(N)nc(NCCc2ccc(F)cc2)n1)c1ccc([N+](=O)[O-])cc1 [Compound 74, N^2-[2-(4-Fluorophenyl)ethyl]-N^4-[(1S)-1-(4-nitrophenyl)ethyl]-1,3,5-triazine-2,4,6-triamine] | ≤ 50
33 | C[C@H](Nc1nc(N)nc(NCCc2ccc(O)cc2)n1)c1ccc([N+](=O)[O-])cc1 [Compound 75, N^2-[2-(4-Hydroxyphenyl)ethyl]-N^4-[(1S)-1-(4-nitrophenyl)ethyl]-1,3,5-triazine-2,4,6-triamine] | ≤ 50
34 | C[C@H](Nc1nc(N)nc(NCCc2ccccc2F)n1)c1ccc([N+](=O)[O-])cc1 [Compound 76, N^2-[2-(2-Fluorophenyl)ethyl]-N^4-[(1S)-1-(4-nitrophenyl)ethyl]-1,3,5-triazine-2,4,6-triamine] | ≤ 50
35 | COc1cccc(CCNc2nc(N)nc(N[C@@H](C)c3ccc([N+](=O)[O-])cc3)n2)c1 [Compound 77, N^2-[2-(3-Methoxyphenyl)ethyl]-N^4-[(1S)-1-(4-nitrophenyl)ethyl]-1,3,5-triazine-2,4,6-triamine] | ≤ 50
36 | C[C@H](Nc1nc(N)nc(NCCc2ccc(N)cc2)n1)c1ccc([N+](=O)[O-])cc1 [Compound 78, N^2-[2-(4-Aminophenyl)ethyl]-N^4-[(1S)-1-(4-nitrophenyl)ethyl]-1,3,5-triazine-2,4,6-triamine] | ≤ 50
37 | Cc1ccc(CCNc2nc(N)nc(N[C@@H](C)c3ccc([N+](=O)[O-])cc3)n2)cc1 [Compound 79, N^2-[2-(4-Methylphenyl)ethyl]-N^4-[(1S)-1-(4-nitrophenyl)ethyl]-1,3,5-triazine-2,4,6-triamine] | ≤ 50
